These results are taken from patent US8987314B2, “Amide, urea or sulfone amide linked benzothiazole inhibitors of endothelial lipase” (Bristol-Myers Squibb Company, priority 2012, dated 2015).

The target in assay [1] is Endothelial lipase (EL) (Homo sapiens (Human), UniProt Q9Y5X9). As to the kind of experiment: EL assay: endothelial lipase activity with fluorescent substrate A10070 in DMPG vesicles. It is filed as biochemical. In outline:
(§1)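 Compounds were preincubated with enzyme for 30 min at 37° C before FRET-substrate vesicles (A10070 in DMPG, 0.11 mole fraction) were added. Reaction rates were obtained from the 300–900 sec slope of fluorescence at 490/530 nm.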

Assay [2] addresses hepatic lipase (HL) (Homo sapiens (Human), UniProt P11150). As to the kind of experiment: HL assay: hepatic lipase activity with fluorescent substrate A10070 in DMPG vesicles. Format: biochemical. The gist of the method: as §1

Endothelial lipase (EL), sequence (Q9Y5X9 21-500): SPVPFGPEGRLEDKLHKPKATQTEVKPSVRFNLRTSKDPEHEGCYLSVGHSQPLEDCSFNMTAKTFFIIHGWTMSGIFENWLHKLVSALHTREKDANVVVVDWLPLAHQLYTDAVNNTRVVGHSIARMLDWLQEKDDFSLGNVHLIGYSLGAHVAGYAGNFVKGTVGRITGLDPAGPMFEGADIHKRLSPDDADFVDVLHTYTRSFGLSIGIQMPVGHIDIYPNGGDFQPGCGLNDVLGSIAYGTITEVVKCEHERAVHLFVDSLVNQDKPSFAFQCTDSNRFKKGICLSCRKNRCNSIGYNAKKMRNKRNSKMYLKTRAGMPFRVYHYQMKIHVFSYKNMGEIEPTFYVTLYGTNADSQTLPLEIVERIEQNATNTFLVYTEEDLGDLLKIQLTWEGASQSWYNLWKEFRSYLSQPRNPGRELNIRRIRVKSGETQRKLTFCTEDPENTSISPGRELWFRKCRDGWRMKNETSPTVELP
hepatic lipase (HL), sequence (P11150 23-499, species assumed): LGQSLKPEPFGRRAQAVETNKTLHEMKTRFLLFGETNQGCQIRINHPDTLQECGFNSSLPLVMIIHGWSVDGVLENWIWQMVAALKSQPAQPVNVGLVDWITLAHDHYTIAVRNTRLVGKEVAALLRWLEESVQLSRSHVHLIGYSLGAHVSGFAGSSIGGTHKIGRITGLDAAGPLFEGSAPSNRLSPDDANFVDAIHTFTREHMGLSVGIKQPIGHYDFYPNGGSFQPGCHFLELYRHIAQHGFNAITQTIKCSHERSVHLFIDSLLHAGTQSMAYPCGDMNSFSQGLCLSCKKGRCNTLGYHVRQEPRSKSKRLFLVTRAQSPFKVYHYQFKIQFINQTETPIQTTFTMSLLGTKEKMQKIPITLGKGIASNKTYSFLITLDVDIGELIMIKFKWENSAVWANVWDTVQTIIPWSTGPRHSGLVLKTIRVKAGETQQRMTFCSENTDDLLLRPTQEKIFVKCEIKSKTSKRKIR

For orientation: IC50 means the concentration that gives 50% inhibition. High values mean weaker potency in that assay, low ones greater potency in that assay. `NS(=O)(=O)CCNC(=O)C(c1nc2ccc(-c3cccc(C(=O)NC4CCC4)c3)cc2s1)S(=O)(=O)CCC(F)(F)F` (stereo not drawn) [Example B337, N-cyclobutyl-3-(2-{[(2-sulfamoylethyl)carba-moyl](3,3,3-trifluoropropane-sulfonyl)methyl}-1,3-benzothiazol-6-yl)benzamide]: the IC50 in assay [1] amounted to 6.8 nM; in assay [2], 28.4 nM.

Consider `CN(CC(F)F)C(=O)c1cccc(-c2ccc3nc(C(C(=O)NCCS(N)(=O)=O)S(=O)(=O)CCC(F)(F)F)sc3c2)c1` (stereo not drawn) [Example B338, N-(2,2-difluoroethyl)-N-methyl-3-(2-{[(2-sulfamoylethyl)carba-moyl](3,3,3-trifluoropro-panesulfonyl)methyl}-1,3-benzothiazol-6-yl)benzamide], for which the figures for the 50% inhibitory concentration (IC50) in assay [1] and in assay [2] were 26.9 nM and 99.7 nM, respectively.

In the case of `CC(F)(F)CNC(=O)c1cccc(-c2ccc3nc(C(C(=O)NCCS(N)(=O)=O)S(=O)(=O)CCC(F)(F)F)sc3c2)c1` (stereo not drawn) [Example B339, N-(2,2-difluoropropyl)-3-(2-{[(2-sulfamoylethyl)car-bamoyl](3,3,3-trifluoropropanesulfon-yl)methyl}-1,3-benzothiazol-6-yl)benzamide], the results for the IC50 in assay [1] and in assay [2] were 9.7 nM and 49.2 nM, respectively.

As for `CN(C)C(=O)c1cccc(-c2ccc3nc(C(C(=O)NCCS(N)(=O)=O)S(=O)(=O)CCC(F)(F)F)sc3c2)c1` (stereo not drawn) [Example B340, N,N-dimethyl-3-(2-{[(2-sulfamoylethyl)carba-moyl](3,3,3-trifluoropro-panesulfonyl)methyl}-1,3-benzothiazol-6-yl)benzamide], the half-inhibitory concentration (IC50) in assay [1] was found to be 14.6 nM; in assay [2], 79.5 nM.

Regarding `CC1(O)CCN(C(=O)c2cccc(-c3ccc4nc(C(C(=O)NCCS(N)(=O)=O)S(=O)(=O)CCC(F)(F)F)sc4c3)c2)CC1` (stereo not drawn) [Example B341, 2-{6-[3-(4-hydroxy-4-methylpiperidine-1-carbonyl)phenyl]-1,3-benzothiazol-2-yl}-N-(2-sulfamoylethyl)-2-(3,3,3-trifluoropropanesulfon-yl)acetamide], the IC50 in assay [1] was determined as 6 nM; in assay [2], 112 nM.

Take `NS(=O)(=O)CCNC(=O)C(c1nc2ccc(-c3cccc(C(=O)N4CC[C@@H](O)C4)c3)cc2s1)S(=O)(=O)CCC(F)(F)F` (stereo partly drawn) [Example B342, 2-(6-{3-[(3R)-3-hydroxy-pyrrolidine-1-carbon-yl]phenyl}-1,3-benzothiazol-2-yl)-N-(2-sulfamoyl-ethyl)-2-(3,3,3-trifluoro-propanesulfonyl)acetamide]: the IC50 in assay [1] worked out at 9.5 nM; in assay [2], 154 nM.

As to `NS(=O)(=O)CCNC(=O)C(c1nc2ccc(-c3cccc(C(=O)N4CCC(F)(F)CC4)c3)cc2s1)S(=O)(=O)CCC(F)(F)F` (stereo not drawn) [Example B343, 2-{6-[3-(4,4-difluoro-piperidine-1-carbon-yl)phenyl]-1,3-benzothiazol-2-yl}-N-(2-sulfamoyl-ethyl)-2-(3,3,3-trifluoro-propanesulfonyl)acetamide], the IC50 in assay [1] was 13.5 nM; in assay [2], 38.1 nM.

As for `NS(=O)(=O)CCNC(=O)C(c1nc2ccc(-c3cccc(C(=O)N4CC[C@H](O)C4)c3)cc2s1)S(=O)(=O)CCC(F)(F)F` (stereo partly drawn) [Example B344], the IC50 stood at 13.1 nM in assay [1] and 22.2 nM in assay [2].

As for `CC(C)(O)CNC(=O)c1cccc(-c2ccc3nc(C(C(=O)NCCS(N)(=O)=O)S(=O)(=O)CCC(F)(F)F)sc3c2)c1` (stereo not drawn) [Example B345, N-(2-hydroxy-2-methyl-propyl)-3-(2-{[(2-sulfamoylethyl)carba-moyl](3,3,3-tnfluoropro-panesulfonyl)methyl}-1,3-benzothiazol-6-yl)benzamide], the IC50 in assay [1] came to 1 nM; in assay [2], 213 nM.

With `Cc1cc2nc(C(C(=O)NCCS(N)(=O)=O)S(=O)(=O)Cc3ccccc3)sc2cc1-c1ccc(C(=O)N2CCOCC2)cc1` (stereo not drawn) [Example B346, 2-{5-methyl-6-[4-(morpholine-4-carbon-yl)phenyl]-1,3-benzothiazol-2-yl}-2-phenylmethane-sulfonyl-N-(2-sulfamoylethyl)acetamide], the IC50 in assay [1] came out at 5.3 nM; in assay [2] it was 400 nM.

Regarding `Cc1cc2nc(C(C(=O)NCCS(N)(=O)=O)S(=O)(=O)Cc3ccccc3)sc2cc1-c1ccc(C(=O)N2CC(C)(O)C2)cc1` (stereo not drawn) [Example B347, 2-{6-[4-(3-hydroxy-3-methylazetidine-1-carbonyl)phenyl]-5-methyl-1,3-benzothiazol-2-yl}-2-phenylmethane-sulfonyl-N-(2-sulfamoylethyl)acetamide], the half-inhibitory concentration (IC50) in assay [1] is 3.4 nM; in assay [2] it was 580 nM.

With `Cc1cc2nc(C(C(=O)NCCS(N)(=O)=O)S(=O)(=O)Cc3ccccc3)sc2cc1-c1ccc(C(=O)N2CCCCC2)cc1` (stereo not drawn) [Example B348, 2-{5-methyl-6-[4-(piperidine-1-carbonyl)phen-yl]-1,3-benzothiazol-2-yl}-2-phenylmethane-sulfonyl-N-(2-sulfamoylethyl)acetamide], the 50% inhibitory concentration (IC50) in assay [1] turned out to be 1 nM; in assay [2] it was 37.1 nM.

For the compound `Cc1cc2nc(C(C(=O)NCCS(N)(=O)=O)S(C)(=O)=O)sc2cc1-c1ccc(C(=O)N2CC(C)(O)C2)cc1` (stereo not drawn) [Example B349, 2-{6-[4-(3-hydroxy-3-methylazetidine-1-carbonyl)phenyl]-5-methyl-1,3-benzothiazol-2-yl}-2-methanesulfonyl-N-(2-sulfamoylethyl)a-cetamide], the IC50 in assay [1] amounted to 2.3 nM; in assay [2], 347 nM.

Regarding `Cc1cc2nc(C(C(=O)NCCS(N)(=O)=O)S(C)(=O)=O)sc2cc1-c1ccc(C(=O)N2CCOCC2)cc1` (stereo not drawn) [Example B350, 2-methanesulfonyl-2-{5-methyl-6-[4-(morpholine-4-carbonyl)phenyl]-1,3-benzothiazol-2-yl}-N-(2-sulfamoylethyl)acetamide], the concentration for half-maximal inhibition (IC50) in assay [1] was 3.2 nM; in assay [2], 90.5 nM.

Take `NS(=O)(=O)CCNC(=O)C(c1nc2ccc(-c3ccc(C(=O)N4CCCCC4)cc3)cc2s1)S(=O)(=O)Cc1ccccc1` (stereo not drawn) [Example B351, 2-phenylmethanesulfonyl-2-{6-[4-(piperidine-1-carbonyl)phenyl]-1,3-benzothiazol-2-yl}-N-(2-sulfamoylethyl)acetamide]: the 50% inhibitory concentration (IC50) in assay [1] turned out to be 6.2 nM; in assay [2], 14.9 nM.

As for `CS(=O)(=O)C(C(=O)NCCS(N)(=O)=O)c1nc2cc(-c3ccccc3F)ccc2s1` (stereo not drawn) [Example B352, 2-[5-(2-fluorophenyl)-1,3-benzothiazol-2-yl]-2-methanesulfonyl-N-(2-sulfamoylethyl)acetamide], the concentration for half-maximal inhibition (IC50) in assay [1] turned out to be 0.8 nM; in assay [2] it was 13.7 nM.

As to `CC1(O)CN(C(=O)c2ccc(-c3ccc4nc(C(C(=O)NCCS(N)(=O)=O)S(=O)(=O)Cc5ccc(F)cc5)sc4c3)cc2)C1` (stereo not drawn) [Example B353, 2-[(4-fluorophenyl)meth-anesulfonyl]-2-{6-[4-(3-hydroxy-3-methylazetidine-1-carbonyl)phcnyl]-1,3-benzothiazol-2-yl}-N-(2-sulfamoylethyl)acetamide], the values for the IC50 in assay [1] and in assay [2] were 2 nM and 18.5 nM, respectively.

As for `CO[C@@H]1CCN(C(=O)c2ccc(-c3ccc4nc(C(C(=O)NCCS(N)(=O)=O)S(=O)(=O)Cc5ccc(OC(F)(F)F)cc5)sc4c3)cc2)C1` (stereo partly drawn) [Example B354, 2-(6-{4-[(3R)-3-methoxy-pyrrolidine-1-carbonyl]phen-yl}-1,3-benzothiazol-2-yl)-N-(2-sulfamoyl-ethyl)-2-{[4-(trifluoro-methoxy)phenyl]methane-sulfonyl}acetamide], the half-maximal inhibitory concentration (IC50) in assay [1] was determined as 3.8 nM; in assay [2] it was 553 nM.
